Tests used:
Assay type in all cases: cell-based
CaR/mGluR2*Gqi5 = molecular target: T1, CaR/mGluR2*Gqi5 (Homo sapiens, UniProt P41180); experiment: Calcium-activated chloride current in Xenopus oocytes injected with G-protein fusion receptor cRNA; settings: 100 μM, Xenopus laevis oocytes, holding −60 mV, FIG. 15
T1 construct: expressed in transfected cells; host or cells: Xenopus laevis oocytes injected with fusion receptor cRNA
Protocol: (§1) The different G-protein fusion receptors used in this example were as follows: mGluR2//CaR*Gqi5 (SEQ. ID. NO. 37), CaR/mGluR2*Gqi5 (SEQ. ID. NO. 33), and mGluR8//CaR*Gqi5 SEQ. ID. NO. 41.
(§2) Oocytes suitable for injection were obtained from adult female Xenopus laevis toads using procedures described in C. J. Marcus-Sekura and M. J. M. Hitchcock, Methods in Enzymology, Vol. 152 (1987).
(§3) Receptor fusion cRNAs were dissolved in water and 50 nl (12.5 ng/oocyte) were injected into individual oocytes. Following injection, oocytes were incubated at 16° C. in MBS containing 1 mM CaCl2 for two to seven days prior to electrophysiological recording.
(§4) Test substances were applied by superfusion at a flow rate of about 5 ml/minute. Receptor fusion activation was determined by measuring the increase in calcium-activated chloride current (ICl). Increases in ICl were quantified by measuring the peak inward current stimulated by activating agent, relative to the holding current at −60 mV. […] Application of 100 μM Gd^3+ activated the CaR/mGluR2*Gqi5.

[1] = molecular target: T2, chimeric CaR/GABABR2 (CaR extracellular and transmembrane domains, and intracellular GABABR2 domain) (Homo sapiens, UniProt O75899+P41180); experiment: Calcium-activated chloride current in Xenopus oocytes co-injected with chimeric CaR/GABABR2 RNA and Gα15 RNA; settings: 100 μM, voltage-clamped, 72-hour incubation, FIG. 8
T2 construct: chimeric CaR/GABABR2 (CaR extracellular and transmembrane domains, and intracellular GABABR2 domain); GABABR2 intracellular domain (fusion partner replacing the CaR tail); expressed in transfected cells; host or cells: Xenopus oocytes injected with in vitro-transcribed RNA
T2 sequence (P41180+O75899 with tags, fused parts or gaps): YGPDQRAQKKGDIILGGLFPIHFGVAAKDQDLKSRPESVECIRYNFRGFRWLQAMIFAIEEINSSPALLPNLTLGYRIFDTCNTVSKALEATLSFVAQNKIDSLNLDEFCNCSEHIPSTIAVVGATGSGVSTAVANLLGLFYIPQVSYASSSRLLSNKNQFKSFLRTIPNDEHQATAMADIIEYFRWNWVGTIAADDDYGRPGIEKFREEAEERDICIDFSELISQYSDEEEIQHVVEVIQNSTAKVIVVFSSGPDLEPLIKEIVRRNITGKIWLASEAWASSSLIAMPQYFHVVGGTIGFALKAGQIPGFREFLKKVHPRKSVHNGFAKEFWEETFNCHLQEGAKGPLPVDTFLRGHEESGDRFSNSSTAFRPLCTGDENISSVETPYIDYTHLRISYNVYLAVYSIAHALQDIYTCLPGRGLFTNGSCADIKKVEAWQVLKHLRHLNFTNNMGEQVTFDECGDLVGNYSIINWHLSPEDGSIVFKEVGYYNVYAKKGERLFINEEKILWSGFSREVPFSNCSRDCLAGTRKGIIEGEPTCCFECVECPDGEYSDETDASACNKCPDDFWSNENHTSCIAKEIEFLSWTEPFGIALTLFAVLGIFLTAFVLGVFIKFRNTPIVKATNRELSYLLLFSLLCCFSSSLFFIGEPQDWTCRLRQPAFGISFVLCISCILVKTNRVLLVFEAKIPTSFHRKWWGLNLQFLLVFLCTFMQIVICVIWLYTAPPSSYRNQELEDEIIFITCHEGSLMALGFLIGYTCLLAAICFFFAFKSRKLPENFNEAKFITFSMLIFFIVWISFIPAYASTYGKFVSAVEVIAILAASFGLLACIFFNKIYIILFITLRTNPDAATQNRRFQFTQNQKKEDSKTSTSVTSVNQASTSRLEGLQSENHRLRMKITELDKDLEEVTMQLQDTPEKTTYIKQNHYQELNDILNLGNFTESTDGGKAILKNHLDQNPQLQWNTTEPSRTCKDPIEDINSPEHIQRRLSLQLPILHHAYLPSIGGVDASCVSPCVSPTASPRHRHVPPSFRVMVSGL
Protocol: FIG. 8 illustrates the ability of a chimeric CaR/GABABR2 (CaR extracellular and transmembrane domains, and intracellular GABABR2 domain) to transduce a signal. Signal production was measured by detecting an increase in the calcium-activated chloride current. The line in the middle of the increase signifies a wash step.
In vitro-transcribed RNA (7 ng) encoding a chimeric CaR/GABABR2 (CaR extracellular and transmembrane domains, and intracellular GABABR2 domain) was co-injected with in vitro-transcribed RNA (2 ng) encoding Gα15 into Xenopus oocytes. Following a 72-hour incubation, the oocytes were voltage-clamped using standard electrophysiological techniques (B. Hille, Ionic Channels of Exictable Membranes, pp. 30-33, Sinauer Associates, Inc., Sunderland, Ma., 1992). Activation of the chimeric receptor was detected by increases in the calcium-activated chloride current.
In this assay, the Gα15 subunit acts to promote signal transduction through intracellular pathways that mobilize intracellular Ca^++.

mGluR8//CaR*Gαqi5 = molecular target: T3, mGluR8//CaR*Gαqi5 (Homo sapiens, UniProt O00222); experiment: Calcium-activated chloride current in Xenopus oocytes injected with G-protein fusion receptor cRNA; settings: 100 μM, Xenopus laevis oocytes, holding −60 mV, FIG. 15
T3 construct: ID; NO; 41; expressed in transfected cells; host or cells: Xenopus laevis oocytes injected with fusion receptor cRNA
Protocol: as §1, §2, §3, §4

mGluR2//CaR*Gαqi5 = mGluR2//CaR*Gαqi5 (Homo sapiens, UniProt Q14416, L8P); experiment: as above; settings: 100 μM, Xenopus laevis oocytes, holding −60 mV, FIG. 15
Chain of mGluR2//CaR*Gαqi5 (Q14416 with tags, fused parts or gaps L8P): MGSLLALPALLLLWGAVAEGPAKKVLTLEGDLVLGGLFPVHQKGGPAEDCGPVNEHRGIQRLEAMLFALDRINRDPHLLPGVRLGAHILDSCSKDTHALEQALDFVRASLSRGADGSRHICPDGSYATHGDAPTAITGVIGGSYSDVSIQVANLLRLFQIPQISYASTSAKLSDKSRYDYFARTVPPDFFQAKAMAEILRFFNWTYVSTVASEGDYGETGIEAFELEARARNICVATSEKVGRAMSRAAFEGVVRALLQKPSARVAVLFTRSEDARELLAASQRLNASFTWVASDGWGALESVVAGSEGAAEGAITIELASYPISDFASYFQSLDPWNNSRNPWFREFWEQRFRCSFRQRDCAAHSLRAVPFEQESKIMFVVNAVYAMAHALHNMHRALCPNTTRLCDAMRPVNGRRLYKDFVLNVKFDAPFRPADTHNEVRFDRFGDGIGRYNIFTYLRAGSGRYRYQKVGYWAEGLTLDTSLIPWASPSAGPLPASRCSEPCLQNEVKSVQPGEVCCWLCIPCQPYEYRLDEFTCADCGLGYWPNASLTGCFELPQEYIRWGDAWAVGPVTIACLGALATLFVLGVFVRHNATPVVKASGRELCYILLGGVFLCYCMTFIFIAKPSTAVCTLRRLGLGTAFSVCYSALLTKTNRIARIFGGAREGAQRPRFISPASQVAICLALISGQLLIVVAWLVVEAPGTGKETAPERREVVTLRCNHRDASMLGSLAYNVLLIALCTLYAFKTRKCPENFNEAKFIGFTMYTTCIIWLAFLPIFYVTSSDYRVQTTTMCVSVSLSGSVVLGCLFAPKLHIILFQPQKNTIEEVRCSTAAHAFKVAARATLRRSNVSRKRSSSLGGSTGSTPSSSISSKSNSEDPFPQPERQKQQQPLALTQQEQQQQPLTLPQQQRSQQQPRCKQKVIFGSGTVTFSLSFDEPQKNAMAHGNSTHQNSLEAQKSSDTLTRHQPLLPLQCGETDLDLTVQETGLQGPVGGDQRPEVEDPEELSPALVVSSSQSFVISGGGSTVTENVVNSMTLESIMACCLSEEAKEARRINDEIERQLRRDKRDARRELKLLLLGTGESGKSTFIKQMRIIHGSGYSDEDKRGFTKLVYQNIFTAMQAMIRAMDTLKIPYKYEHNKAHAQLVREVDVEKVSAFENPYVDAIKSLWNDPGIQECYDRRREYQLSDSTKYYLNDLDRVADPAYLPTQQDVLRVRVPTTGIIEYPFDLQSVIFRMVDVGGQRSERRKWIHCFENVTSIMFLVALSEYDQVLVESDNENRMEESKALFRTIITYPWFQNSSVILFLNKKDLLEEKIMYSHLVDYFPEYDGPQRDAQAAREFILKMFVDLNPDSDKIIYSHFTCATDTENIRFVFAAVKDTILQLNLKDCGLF

T1 sequence (P41180 with tags, fused parts or gaps): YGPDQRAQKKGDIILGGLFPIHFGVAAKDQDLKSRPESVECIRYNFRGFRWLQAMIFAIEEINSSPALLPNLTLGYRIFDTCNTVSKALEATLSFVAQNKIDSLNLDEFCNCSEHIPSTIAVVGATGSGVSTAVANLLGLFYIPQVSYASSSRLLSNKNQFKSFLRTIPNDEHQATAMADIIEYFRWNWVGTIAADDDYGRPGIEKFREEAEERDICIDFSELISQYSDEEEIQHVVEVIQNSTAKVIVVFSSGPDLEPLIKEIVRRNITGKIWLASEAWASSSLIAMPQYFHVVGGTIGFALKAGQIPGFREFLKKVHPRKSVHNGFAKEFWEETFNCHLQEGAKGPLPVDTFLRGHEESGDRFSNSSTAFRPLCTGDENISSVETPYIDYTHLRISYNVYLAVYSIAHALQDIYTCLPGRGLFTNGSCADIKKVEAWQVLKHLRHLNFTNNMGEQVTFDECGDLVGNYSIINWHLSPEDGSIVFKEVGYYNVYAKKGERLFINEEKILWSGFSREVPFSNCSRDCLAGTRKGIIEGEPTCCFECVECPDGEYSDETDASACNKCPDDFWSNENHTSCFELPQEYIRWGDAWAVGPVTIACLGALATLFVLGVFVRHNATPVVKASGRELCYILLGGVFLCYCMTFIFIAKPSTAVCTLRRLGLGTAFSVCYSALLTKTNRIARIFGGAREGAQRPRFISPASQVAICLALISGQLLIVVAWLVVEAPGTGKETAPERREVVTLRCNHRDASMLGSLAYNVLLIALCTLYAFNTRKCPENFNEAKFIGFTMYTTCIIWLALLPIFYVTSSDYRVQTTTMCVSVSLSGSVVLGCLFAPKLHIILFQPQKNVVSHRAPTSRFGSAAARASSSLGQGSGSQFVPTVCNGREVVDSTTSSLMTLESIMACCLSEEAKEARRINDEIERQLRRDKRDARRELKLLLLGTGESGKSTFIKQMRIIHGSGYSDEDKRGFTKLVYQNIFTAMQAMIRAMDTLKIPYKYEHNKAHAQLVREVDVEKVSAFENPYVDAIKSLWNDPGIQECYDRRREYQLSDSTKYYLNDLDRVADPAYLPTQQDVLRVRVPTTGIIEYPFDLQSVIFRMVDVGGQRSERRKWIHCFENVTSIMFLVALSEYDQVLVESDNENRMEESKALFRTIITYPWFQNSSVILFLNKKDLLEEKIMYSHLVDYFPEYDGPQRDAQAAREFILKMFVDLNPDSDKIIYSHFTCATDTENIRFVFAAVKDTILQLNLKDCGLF
T3 sequence (O00222 with tags, fused parts or gaps): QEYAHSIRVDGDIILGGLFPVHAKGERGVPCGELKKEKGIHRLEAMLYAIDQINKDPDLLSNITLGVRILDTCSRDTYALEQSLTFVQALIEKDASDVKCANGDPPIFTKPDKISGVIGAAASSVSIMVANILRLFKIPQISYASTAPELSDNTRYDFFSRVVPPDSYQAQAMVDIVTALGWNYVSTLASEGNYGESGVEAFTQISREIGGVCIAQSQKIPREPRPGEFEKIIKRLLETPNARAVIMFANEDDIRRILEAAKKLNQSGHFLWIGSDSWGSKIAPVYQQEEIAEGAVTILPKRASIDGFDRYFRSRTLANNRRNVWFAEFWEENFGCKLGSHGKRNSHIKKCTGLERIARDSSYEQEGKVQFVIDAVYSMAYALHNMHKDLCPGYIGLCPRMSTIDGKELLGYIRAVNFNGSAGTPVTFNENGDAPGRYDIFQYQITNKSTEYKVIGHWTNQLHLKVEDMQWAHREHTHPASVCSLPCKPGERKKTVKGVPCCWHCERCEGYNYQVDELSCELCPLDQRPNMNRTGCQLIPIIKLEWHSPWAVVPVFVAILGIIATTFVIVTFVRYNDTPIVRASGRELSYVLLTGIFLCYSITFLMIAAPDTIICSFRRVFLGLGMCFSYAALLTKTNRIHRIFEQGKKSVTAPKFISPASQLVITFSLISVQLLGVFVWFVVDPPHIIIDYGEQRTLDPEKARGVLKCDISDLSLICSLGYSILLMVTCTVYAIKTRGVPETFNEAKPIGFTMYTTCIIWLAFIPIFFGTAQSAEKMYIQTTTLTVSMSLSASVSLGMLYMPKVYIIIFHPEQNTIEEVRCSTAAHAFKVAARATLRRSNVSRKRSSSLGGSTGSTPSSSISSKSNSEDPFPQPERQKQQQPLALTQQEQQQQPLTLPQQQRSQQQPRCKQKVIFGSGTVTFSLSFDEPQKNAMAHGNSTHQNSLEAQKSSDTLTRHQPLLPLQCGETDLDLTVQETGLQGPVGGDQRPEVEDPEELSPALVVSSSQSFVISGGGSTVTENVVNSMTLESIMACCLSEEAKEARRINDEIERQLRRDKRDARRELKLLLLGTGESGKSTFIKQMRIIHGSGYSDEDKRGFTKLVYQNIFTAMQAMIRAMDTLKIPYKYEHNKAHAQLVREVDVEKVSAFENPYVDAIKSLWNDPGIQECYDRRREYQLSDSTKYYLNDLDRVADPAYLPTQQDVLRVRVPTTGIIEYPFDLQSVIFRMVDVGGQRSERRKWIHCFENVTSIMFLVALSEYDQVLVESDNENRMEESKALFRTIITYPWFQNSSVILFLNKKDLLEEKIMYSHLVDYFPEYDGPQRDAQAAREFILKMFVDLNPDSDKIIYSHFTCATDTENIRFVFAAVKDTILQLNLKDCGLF

Row | receptor fusion activation, increase in calcium-activated chloride current (ICl) (CaR/mGluR2*Gqi5) | Compound | activation of the chimeric receptor detected by increases in the calcium-activated chloride current [1] | receptor fusion activation, increase in calcium-activated chloride current (ICl) (mGluR8//CaR*Gαqi5) | receptor fusion activation, increase in calcium-activated chloride current (ICl) (mGluR2//CaR*Gαqi5)
1 | activated | [Gd+3] [Gd^3+] | reversible, oscillatory increases in the calcium-activated chloride current |  | 
2 |  | N[C@@H](CCC(=O)O)C(=O)O [L-glutamate] |  | elicited a response | elicited a response

Source: patent publication US7262280B1, “G-protein fusion receptors and constructs encoding same” (NPS Pharmaceuticals, Inc., priority 1998, dated 2007)
